Test results from publication PMC11162475, “Rule-based omics mining reveals antimicrobial macrocyclic peptides against drug-resistant clinical isolates” (Nature Communications, 2024).
Converted amounts (≈) assume the structure as drawn.

How the values were obtained:
[1] = test system: Acinetobacter baumannii 20-1; experiment: microbe, parasite or virus in culture; format: cell-based; conditions: 20-1, 20 h
Procedure: (§1) For MIC determination, Staphylococcus aureus ATCC25923, Bacillus subtilis 168, Micrococcus luteus DSM1790, Enterococcus faecalis OG1RF, Enterococcus faecium MCC2763, Escherichia coli DH5α and Pseudomonas aeruginosa PAO1 were used as indicator strains. Nisin and vancomycin were used as positive controls. A dilution series of massatide A, massatide B, vancomycin (16, 8, 4, 2, 1, 0.5, 0.25, 0.125, 0.0625, 0.0313 μg/mL) and sistertide A1, kebanetide A1, kebanetide A2, nisin (64, 32, 16, 8, 4, 2, 1, 0.5, 0.25, 0.125 μg/mL) were prepared in 96-well plate from 1–10th column. The indicator strains were added to the compound-containing well. The indicator strain culture with no antibiotics was prepared in the 11th column. The 12th column was filled with 200 μL empty MHB medium. The 96-well plate was incubated at 37 °C for 20 h (30 °C for M. luteus and B. subtilis). The OD600 was detected on MULTISKAN Sky (Thermo Scientific) and MIC values were determined. The MIC values of clinical isolates were determined by Sichuan Primed Shines Bio-tech Co., Ltd. (China) following similar protocol. Levofloxacin was used as a positive control.

[2] = test system: Acinetobacter baumannii 20-2; experiment: microbe, parasite or virus in culture; format: cell-based; conditions: 20-2, 20 h
Procedure: as §1

Bacillus subtilis 168 = experiment: microbe, parasite or virus in culture; format: cell-based; conditions: 168, 20 h
Procedure: as §1

[3] = test system: Enterococcus faecalis 19-1; experiment: microbe, parasite or virus in culture; format: cell-based; conditions: 19-1, 20 h
Procedure: as §1

[4] = test system: Enterococcus faecalis OG1RF; experiment: microbe, parasite or virus in culture; format: cell-based; conditions: OG1RF, 20 h
Procedure: as §1

[5] = test system: Enterococcus faecium MCC2763; experiment: microbe, parasite or virus in culture; format: cell-based; conditions: MCC2763, 20 h
Procedure: as §1

[6] = test system: Klebsiella pneumoniae 15-1; experiment: microbe, parasite or virus in culture; format: cell-based; conditions: 15-1, 20 h
Procedure: as §1

[7] = test system: Klebsiella pneumoniae ATCC700603; experiment: microbe, parasite or virus in culture; format: cell-based; conditions: ATCC700603, 20 h
Procedure: as §1

[8] = test system: Micrococcus luteus DSM1790; experiment: microbe, parasite or virus in culture; format: cell-based; conditions: DSM1790, 20 h
Procedure: as §1

[9] = test system: Staphylococcus aureus ATCC25923; experiment: microbe, parasite or virus in culture; format: cell-based; conditions: ATCC25923, 20 h
Procedure: as §1

LRSA 20-1 = experiment: microbe, parasite or virus in culture; format: cell-based, Staphylococcus aureus; conditions: 20 h
Procedure: as §1

MRSA 15-1 = experiment: microbe, parasite or virus in culture; format: cell-based, Staphylococcus aureus; conditions: 15-1, 20 h
Procedure: as §1

MRSA ATCC33591 = experiment: microbe, parasite or virus in culture; format: cell-based, Staphylococcus aureus; conditions: ATCC33591, 20 h
Procedure: as §1

MRSA ATCC43300 = experiment: microbe, parasite or virus in culture; format: cell-based, Staphylococcus aureus; conditions: ATCC43300, 20 h
Procedure: as §1

VMSA ATCC700699 = experiment: microbe, parasite or virus in culture; format: cell-based, Staphylococcus aureus; conditions: ATCC700699, 20 h
Procedure: as §1

VMSA ATCC700788 = experiment: microbe, parasite or virus in culture; format: cell-based, Staphylococcus aureus; conditions: ATCC700788, 20 h
Procedure: as §1

S. aureus ATCC 25923 = experiment: Lysis of S. aureus culture; format: cell-based, Staphylococcus aureus; conditions: S. aureus ATCC 25923 culture OD600 1.0, 10×MIC, 24 h
Procedure: Growth kinetics of S. aureus
Massatide A or B was prepared in a 96-well plate at the concentration of 8×MIC, 4×MIC, 2×MIC, 1×MIC and 0.5×MIC , respectively. The MHB medium with no compound was used as a control. Then, the overnight culture of S. aureus ATCC 25923 cells was added to the medium at 1:1,000. The plate was incubated with shaking in SpectraMax iD3 (MOLECULAR DEVICES) at 30 ℃. OD600 was measured every 30 min for 36 hours. To analyze the lysis, 1mL of S. aureus ATCC 25923 culture (OD600 1.0) was treated with massatide A or vancomycin (10×MIC) for 24h. An untreated sample was used as a negative control. […]
Experiments were performed in triplicate. […]

ICR mice = experiment: Mouse acute toxicity test; format: in vivo
Procedure: Massatide A was dissolved in saline to the required concentration for the experiments. Six-week-old specific pathogen-free male ICR mice weighing 18–20 g were randomly divided into 4 groups (4 per group) and administered in a single intraperitoneal injection. Group 1 animals received 0.9% saline only, while groups 2–4 were given massatide A at 10, 30, and 50 mg/kg, respectively. The animals were continuously observed for general behavioral changes for 5 days and survival rate was recorded.

Escherichia coli DH5α = format: cell-based; conditions: DH5α, 20 h
Procedure: as §1

[10] = test system: Pseudomonas aeruginosa PAO1; format: cell-based; conditions: PAO1, 20 h
Procedure: as §1

[11] = test system: tested gram-positive pathogens, including vancomycin intermediate-resistant strains; format: cell-based; conditions: 20 h
Procedure: as §1

## C/C=C1\NC(=O)C(N(C)C)C(C)SC[C@@H](C(=O)N[C@H](CC)C(=O)N[C@H](C(=O)N[C@@H](C)C(=O)N[C@H](C)C(=O)N[C@@H](Cc2ccccc2)C(=O)N[C@@H](C)C(=O)NC2C(=O)NCC(=O)N[C@@H](Cc3ccc(O)cc3)C(=O)N[C@@H](Cc3ccccc3)C(=O)N[C@H](C)C(=O)N/C=C\SC2C)C(C)C)NC(=O)[C@@H]2CCCN2C(=O)[C@H](C(C)C)NC1=O (stereo partly drawn) [Massatide A (1), massatide A]
[1]
  MIC: 64 µg/mL (≈ 39.1 µM)
[2]
  MIC: 64 µg/mL (≈ 39.1 µM)
Bacillus subtilis 168
  MIC: 2 µg/mL (≈ 1.22 µM)
[3]
  MIC: 4 µg/mL (≈ 2.45 µM)
[4]
  MIC: 4 µg/mL (≈ 2.45 µM)
[5]
  MIC: 2 µg/mL (≈ 1.22 µM)
[6]
  MIC: >64 µg/mL
[7]
  MIC: >64 µg/mL
[8]
  MIC: 0.06 µg/mL (≈ 0.0367 µM)
[9]
  MIC: 0.5 µg/mL (≈ 0.306 µM)
LRSA 20-1
  MIC: 0.25 µg/mL (≈ 0.153 µM)
MRSA 15-1
  MIC: 2 µg/mL (≈ 1.22 µM)
MRSA ATCC33591
  MIC: 1 µg/mL (≈ 0.612 µM)
MRSA ATCC43300
  MIC: 0.25 µg/mL (≈ 0.153 µM)
VMSA ATCC700699
  MIC: 4 µg/mL (≈ 2.45 µM)
VMSA ATCC700788
  MIC: 4 µg/mL (≈ 2.45 µM)
S. aureus ATCC 25923
  lysis of the cell culture: did not result in lysis
ICR mice; 10 mg/kg i.p., day 1, 4 mice per group
  number of new dead mouse: 0
ICR mice; 10 mg/kg i.p., day 2, 4 mice per group
  number of new dead mouse: 0
ICR mice; 10 mg/kg i.p., day 3, 4 mice per group
  number of new dead mouse: 0
ICR mice; 10 mg/kg i.p., day 5, 4 mice per group
  number of new dead mouse: 0
ICR mice; 30 mg/kg i.p., day 1, 4 mice per group
  number of new dead mouse: 0
ICR mice; 30 mg/kg i.p., day 2, 4 mice per group
  number of new dead mouse: 0
ICR mice; 30 mg/kg i.p., day 3, 4 mice per group
  number of new dead mouse: 0
ICR mice; 30 mg/kg i.p., day 5, 4 mice per group
  number of new dead mouse: 0
ICR mice; 50 mg/kg i.p., day 1, 4 mice per group
  number of new dead mouse: 0
ICR mice; 50 mg/kg i.p., day 2, 4 mice per group
  number of new dead mouse: 0
ICR mice; 50 mg/kg i.p., day 3, 4 mice per group
  number of new dead mouse: 0
ICR mice; 50 mg/kg i.p., day 5, 4 mice per group
  number of new dead mouse: 0
ICR mice; male ICR mice, single intraperitoneal injection, 10-50 mg/kg, 5 days, 4 per group
  survival / signs of acute toxicity: all treated mice survived without any signs of acute toxicity
Escherichia coli DH5α
  MIC: >128 µg/mL
[10]
  MIC: >128 µg/mL
[11]
  MIC (potency) against tested gram-positive pathogens: below 4 μg/mL
